Test results: PubChem BioAssay AID1918949 (Molecular Pharmacology Branch, DTP, NCI, 2023)

Test system: K24384-001-R-PDC complex spheroid viability
Assay: Anticancer human tumor K24384-001-R-PDC patient-derived pancreatic adenocarcinoma cell line growth inhibition
Conditions: for IC50: curve of first compound; for viability, T/C: stronger effect = lower value
Outline: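 Drug combinations with the LSD1 inhibitor iadademstat tested on tumor cells co-cultured as spheroids with endothelial cells and mesenchymal stem cells. Concentrations descended in half-log increments from clinical Cmax or 10 microM.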

[1] = second compound 0.1 µM, first compound 0.0316 µM
[2] = second compound 0.1 µM, first compound 0.1 µM
[3] = second compound 0.1 µM, first compound 0.316 µM
[4] = second compound 0.1 µM, first compound 1 µM
[5] = second compound 0.1 µM, first compound 3.16 µM
[6] = second compound 0.1 µM, first compound 10 µM
[7] = second compound 0.316 µM, first compound 0.0316 µM
[8] = second compound 0.316 µM, first compound 0.1 µM
[9] = second compound 0.316 µM, first compound 0.316 µM
[10] = second compound 0.316 µM, first compound 1 µM
[11] = second compound 0.316 µM, first compound 3.16 µM
[12] = second compound 0.316 µM, first compound 10 µM
[13] = second compound 1 µM, first compound 0.0316 µM
[14] = second compound 1 µM, first compound 0.1 µM
[15] = second compound 1 µM, first compound 0.316 µM
[16] = second compound 1 µM, first compound 1 µM
[17] = second compound 1 µM, first compound 3.16 µM
[18] = second compound 1 µM, first compound 10 µM
[19] = second compound 3.16 µM, first compound 0.0316 µM
[20] = second compound 3.16 µM, first compound 0.1 µM
[21] = second compound 3.16 µM, first compound 0.316 µM
[22] = second compound 3.16 µM, first compound 1 µM
[23] = second compound 3.16 µM, first compound 3.16 µM
[24] = second compound 3.16 µM, first compound 10 µM
[25] = second compound 10 µM, first compound 0.0316 µM
[26] = second compound 10 µM, first compound 0.1 µM
[27] = second compound 10 µM, first compound 0.316 µM
[28] = second compound 10 µM, first compound 1 µM
[29] = second compound 10 µM, first compound 3.16 µM
[30] = second compound 10 µM, first compound 10 µM
[31] = second compound 0.1 µM, first compound 0.00316 µM
[32] = second compound 0.1 µM, first compound 0.01 µM
[33] = second compound 0.316 µM, first compound 0.00316 µM
[34] = second compound 0.316 µM, first compound 0.01 µM
[35] = second compound 1 µM, first compound 0.00316 µM
[36] = second compound 1 µM, first compound 0.01 µM
[37] = second compound 3.16 µM, first compound 0.00316 µM
[38] = second compound 3.16 µM, first compound 0.01 µM
[39] = second compound 10 µM, first compound 0.00316 µM
[40] = second compound 10 µM, first compound 0.01 µM
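Also: spheroids exposed to agents for seven days before luminescence viability reading.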
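For viability, T/C in this document: 100% = DMSO vehicle control viability.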

## CC(C)c1c(-c2ccccc2)nc2c(C#N)c[nH]n2c1=O + NC1CC1c1ccc(-c2cccc(O)c2)cc1
Second compound 0.1 µM
  IC50: > 10 µM
Second compound 0.316 µM
  IC50: > 10 µM
Second compound 1 µM
  IC50: > 10 µM
Second compound 3.16 µM
  IC50: > 10 µM
Second compound 10 µM
  IC50: > 10 µM
[1]
  viability, T/C: 84%
[2]
  viability, T/C: 114%
[3]
  viability, T/C: 71%
[4]
  viability, T/C: 86.7%
[5]
  viability, T/C: 73.1%
[6]
  viability, T/C: 76.3%
[7]
  viability, T/C: 119%
[8]
  viability, T/C: 84.1%
[9]
  viability, T/C: 65.9%
[10]
  viability, T/C: 86%
[11]
  viability, T/C: 90.8%
[12]
  viability, T/C: 74.8%
[13]
  viability, T/C: 82.3%
[14]
  viability, T/C: 62.7%
[15]
  viability, T/C: 72.6%
[16]
  viability, T/C: 65%
[17]
  viability, T/C: 70.1%
[18]
  viability, T/C: 69.8%
[19]
  viability, T/C: 85.5%
[20]
  viability, T/C: 79%
[21]
  viability, T/C: 91.4%
[22]
  viability, T/C: 66.9%
[23]
  viability, T/C: 67.3%
[24]
  viability, T/C: 72.2%
[25]
  viability, T/C: 78.8%
[26]
  viability, T/C: 86.2%
[27]
  viability, T/C: 84.8%
[28]
  viability, T/C: 76.5%
[29]
  viability, T/C: 70.8%
[30]
  viability, T/C: 76.8%

## CC1COCCN1c1cc(-c2ccnn2C)c2ccnc(-c3ccn[nH]3)c2n1 (stereo not given) + NC1CC1c1ccc(-c2cccc(O)c2)cc1
Second compound 0.1 µM
  IC50: 0.00471 µM
Second compound 0.316 µM
  IC50: 0.326 µM
Second compound 1 µM
  IC50: 0.0163 µM
Second compound 3.16 µM
  IC50: 0.0104 µM
Second compound 10 µM
  IC50: 0.343 µM
[31]
  viability, T/C: 51.2%
[32]
  viability, T/C: 51.4%
[1]
  viability, T/C: 40.2%
[2]
  viability, T/C: 44.7%
[3]
  viability, T/C: 46.9%
[4]
  viability, T/C: 38%
[33]
  viability, T/C: 56.1%
[34]
  viability, T/C: 46.6%
[7]
  viability, T/C: 51%
[8]
  viability, T/C: 45.1%
[9]
  viability, T/C: 53.5%
[10]
  viability, T/C: 34%
[35]
  viability, T/C: 53%
[36]
  viability, T/C: 59.9%
[13]
  viability, T/C: 40.9%
[14]
  viability, T/C: 42.9%
[15]
  viability, T/C: 43.8%
[16]
  viability, T/C: 35.8%
[37]
  viability, T/C: 56.5%
[38]
  viability, T/C: 52.3%
[19]
  viability, T/C: 43.7%
[20]
  viability, T/C: 39.7%
[21]
  viability, T/C: 48.1%
[22]
  viability, T/C: 37%
[39]
  viability, T/C: 64.2%
[40]
  viability, T/C: 60.1%
[25]
  viability, T/C: 51.1%
[26]
  viability, T/C: 59%
[27]
  viability, T/C: 51.8%
[28]
  viability, T/C: 31.7%

## COc1ccc([C@@H](O)c2cc(-c3ncnc4cc(N5CCOCC5)ccc34)c(F)cc2Cl)nn1 + NC1CC1c1ccc(-c2cccc(O)c2)cc1
Second compound 0.1 µM
  IC50: 1.33 µM
Second compound 0.316 µM
  IC50: 2 µM
Second compound 1 µM
  IC50: 1.49 µM
Second compound 3.16 µM
  IC50: 1.44 µM
Second compound 10 µM
  IC50: 1.45 µM
[1]
  viability, T/C: 97%
[2]
  viability, T/C: 95.6%
[3]
  viability, T/C: 87.2%
[4]
  viability, T/C: 55.9%
[5]
  viability, T/C: 29.6%
[6]
  viability, T/C: 17.8%
[7]
  viability, T/C: 112%
[8]
  viability, T/C: 102%
[9]
  viability, T/C: 91.1%
[10]
  viability, T/C: 73.2%
[11]
  viability, T/C: 34.3%
[12]
  viability, T/C: 15.1%
[13]
  viability, T/C: 117%
[14]
  viability, T/C: 103%
[15]
  viability, T/C: 95.2%
[16]
  viability, T/C: 61.3%
[17]
  viability, T/C: 28.1%
[18]
  viability, T/C: 15.9%
[19]
  viability, T/C: 105%
[20]
  viability, T/C: 105%
[21]
  viability, T/C: 79.7%
[22]
  viability, T/C: 62.7%
[23]
  viability, T/C: 28.6%
[24]
  viability, T/C: 15.1%
[25]
  viability, T/C: 124%
[26]
  viability, T/C: 114%
[27]
  viability, T/C: 96.6%
[28]
  viability, T/C: 57%
[29]
  viability, T/C: 32.2%
[30]
  viability, T/C: 14.9%

## COc1cc(C2c3cc4c(cc3C(OC3OC5COC(C)OC5C(O)C3O)C3COC(=O)C23)OCO4)cc(OC)c1O (stereo not given) + NC1CCC(NC2CC2c2ccccc2)CC1
Second compound 0.1 µM
  IC50: 1.33 µM
Second compound 0.316 µM
  IC50: 1.86 µM
Second compound 1 µM
  IC50: 2.65 µM
Second compound 3.16 µM
  IC50: > 3 µM
Second compound 10 µM
  IC50: 2.62 µM
Second compound 0.1 µM, first compound 0.00949 µM
  viability, T/C: 91.2%
Second compound 0.1 µM, first compound 0.03 µM
  viability, T/C: 92.8%
Second compound 0.1 µM, first compound 0.0949 µM
  viability, T/C: 86.4%
Second compound 0.1 µM, first compound 0.3 µM
  viability, T/C: 65.3%
Second compound 0.1 µM, first compound 0.949 µM
  viability, T/C: 55.9%
Second compound 0.1 µM, first compound 3 µM
  viability, T/C: 42.8%
Second compound 0.316 µM, first compound 0.00949 µM
  viability, T/C: 107%
Second compound 0.316 µM, first compound 0.03 µM
  viability, T/C: 83.3%
Second compound 0.316 µM, first compound 0.0949 µM
  viability, T/C: 79.7%
Second compound 0.316 µM, first compound 0.3 µM
  viability, T/C: 75.7%
Second compound 0.316 µM, first compound 0.949 µM
  viability, T/C: 57.2%
Second compound 0.316 µM, first compound 3 µM
  viability, T/C: 43.2%
Second compound 1 µM, first compound 0.00949 µM
  viability, T/C: 98.4%
Second compound 1 µM, first compound 0.03 µM
  viability, T/C: 97.2%
Second compound 1 µM, first compound 0.0949 µM
  viability, T/C: 69.3%
Second compound 1 µM, first compound 0.3 µM
  viability, T/C: 72.6%
Second compound 1 µM, first compound 0.949 µM
  viability, T/C: 59.6%
Second compound 1 µM, first compound 3 µM
  viability, T/C: 47.8%
Second compound 3.16 µM, first compound 0.00949 µM
  viability, T/C: 87.8%
Second compound 3.16 µM, first compound 0.03 µM
  viability, T/C: 102%
Second compound 3.16 µM, first compound 0.0949 µM
  viability, T/C: 67.9%
Second compound 3.16 µM, first compound 0.3 µM
  viability, T/C: 65%
Second compound 3.16 µM, first compound 0.949 µM
  viability, T/C: 57.9%
Second compound 3.16 µM, first compound 3 µM
  viability, T/C: 54%
Second compound 10 µM, first compound 0.00949 µM
  viability, T/C: 88.2%
Second compound 10 µM, first compound 0.03 µM
  viability, T/C: 98.4%
Second compound 10 µM, first compound 0.0949 µM
  viability, T/C: 90.1%
Second compound 10 µM, first compound 0.3 µM
  viability, T/C: 73.2%
Second compound 10 µM, first compound 0.949 µM
  viability, T/C: 66%
Second compound 10 µM, first compound 3 µM
  viability, T/C: 47.4%

## Nc1ncn(C2CC(O)C(CO)O2)c(=O)n1 (stereo not given) + NC1CCC(NC2CC2c2ccccc2)CC1
Second compound 0.1 µM
  IC50: > 1 µM
Second compound 0.316 µM
  IC50: > 1 µM
Second compound 1 µM
  IC50: > 1 µM
Second compound 3.16 µM
  IC50: > 1 µM
Second compound 10 µM
  IC50: > 1 µM
[31]
  viability, T/C: 78.3%
[32]
  viability, T/C: 93.8%
[1]
  viability, T/C: 80.4%
[2]
  viability, T/C: 73.6%
[3]
  viability, T/C: 79.5%
[4]
  viability, T/C: 73.5%
[33]
  viability, T/C: 88%
[34]
  viability, T/C: 79.4%
[7]
  viability, T/C: 87.4%
[8]
  viability, T/C: 82.5%
[9]
  viability, T/C: 76.2%
[10]
  viability, T/C: 85.1%
[35]
  viability, T/C: 88.4%
[36]
  viability, T/C: 80.5%
[13]
  viability, T/C: 82.6%
[14]
  viability, T/C: 68.3%
[15]
  viability, T/C: 78.6%
[16]
  viability, T/C: 70.1%
[37]
  viability, T/C: 89.8%
[38]
  viability, T/C: 88%
[19]
  viability, T/C: 105%
[20]
  viability, T/C: 76.6%
[21]
  viability, T/C: 59.7%
[22]
  viability, T/C: 60.9%
[39]
  viability, T/C: 92.9%
[40]
  viability, T/C: 83.8%
[25]
  viability, T/C: 87.8%
[26]
  viability, T/C: 63.2%
[27]
  viability, T/C: 73.7%
[28]
  viability, T/C: 72.7%
